Reference: patent EP0313703A1, “Use of 24,25-dihydroxycholecalciferole in the treatment of urinary calculus” (KUREHA KAGAKU KOGYO KABUSHIKI KAISHA, priority 1987, dated 1989)

Tests used:
male ICR mice = experiment: Acute oral toxicity, single dose, 2 weeks observation; format: in vivo; settings: 150 mg/kg p.o.
Description: (§1) After dissolving the present substance in ethanol, the thus formed solution was diluted by a triglyceride of a fatty acid of 8 to 10 carbon atoms so that the concentration of ethanol became 2 %. The thus formed solution was orally (p.o.) administered to each of 10 male ICR mice (age of 6 weeks, body weight of 25±3 g) at dose of 150 mg/kg. […] Accordingly, the acute oral LD₅₀ of the present substance is not less than […] and the present substance can be said to be extremely safe.

[1] = as above; format: in vivo, mice; settings: mouse, in vivo, po, male ICR mice; read-out: acute oral LD₅₀
Description: as §1

male or female ICR mice = experiment: 30-day repeated oral administration: body weight and histopathology; format: in vivo; settings: 10, 100 or 1000 µg/kg daily p.o. for 30 days
Description: After dissolving 24R,25-(OH)₂-D₃, at a prescribed concentration, into the triglyceride of a fatty acid of 8 to 10 carbon atoms containing 1 % of ethanol, the solution was forcibly and orally administered to each of the three groups of the male or female ICR mice continuously for 30 days at a daily dose of 10, 100 or 1000 µg/kg.
The examined organs are as follows: brain, heart, lung, liver, kidney, adrenal, spleen, pancreas, thyroid, hypophysis, thymus, mesentric lymph node, testis, ovary, uterus, stomach, small intestines (jejunum, ileum and duodenum), large intestines (colon and cecum), eyeball, submandibular gland, urinary bladder, backskin, muscle, sternum, marrow of sternum, femur and marrow of femur.

renal calculus = experiment: Inhibition of formation of renal calculus in model rats (ethylene glycol + 1α-hydroxycholecarciferol); format: in vivo, Wistar rats; settings: 10 µg/kg/1 ml/day p.o., four weeks
Description: As the test animals for renal calculus, the following rats were used.
Twenty male Wistar rats (age of 8 weeks and body weight of about 200 g) were allowed to take a water containing 0.5 % of ethylene glycol freely, and a mixture of 0.5 µg of 1α-hydroxycholecarciferol and 0.1 ml of triglyceride of a fatty acid of 8 to 10 carbon atoms was forcibly and orally administered by a stomach tube every other day for four weeks, thereafter being used as the test animals.
24R,25-(OH)₂-D₃ in the triglyceride of a fatty acid of 8 to 10 carbon atoms containing 2 % of ethanol was forcibly and orally administered to each of the test animals at a dose of 10µg/kg/1 ml/day by a stomach tube, and to each animals of the control group, the triglyceride of a fatty acid of 8 to 10 carbon atoms was administered in the same manner as above.
The animals were slaughtered after four weeks from the first administration, and the kidney of the animal was extirpated therefrom after the exsanguination and immediately photographed by soft X-ray. Furhter the cross section of the extirpated kidney containing papilla was observed by naked eyes.

Compound | survival / toxic symptoms (male ICR mice; 10 male ICR mice, observed for 2 weeks) | biochemical examination of the blood, autopsy and histopathological examination versus control animals (male ICR mice; male ICR mice, after slaughter at 2 weeks) | LD50 at 336 h [1] [mg/kg] | body weight change (growth curve) (male or female ICR mice) | histopathological examination of organs (hematoxylin·eosin) (male or female ICR mice) | calculi in the pelvis and the papilla of the kidney, observation by naked eyes (renal calculus; 10 rats, control group: 8 cases among 10 rats) | radial deposition of crystals in the renal parenchyma, observation by naked eyes (renal calculus; 10 rats, remarkably found in the control group) | formation of calculus, soft X-ray photograph of the kidney (renal calculus; compared with control rats)
C=C1CC[C@H](O)C/C1=C/C=C1\CCC[C@]2(C)[C@@H]([C@H](C)CCC(O)C(C)(C)O)CC[C@@H]12 (some centres unmarked) [the present substance, 24,25-dihydroxycholecalciferol] | all the animals (10 mice) survived without any abnormality | no difference was found | ≥ 100 |  |  |  |  | 
C=C1CC[C@H](O)C/C1=C/C=C1\CCC[C@]2(C)[C@@H]([C@H](C)CC[C@@H](O)C(C)(C)O)CC[C@@H]12 [24R,25-(OH)₂-D₃] |  |  |  | any significant difference in the body weight change was not recognized | any abnormal findings were not particularly recognized | any clear calculus was never recognized | one rat of 10 rats | clear inhibition of the formation of calculus
